In patent US20070037837A1, “Quinazoline derivatives” (priority 2003, published 2007):

Legend:
EGFR tyrosine kinase = biological target: T1, EGFR tyrosine kinase (Homo sapiens, UniProt P00533); test: Protein tyrosine kinase phosphorylation assay, Test (a), EGFR; format: biochemical; settings: recombinant intracellular fragment, ATP at Km; read-out: IC50 Test (a): Inhibition of EGFR tyrosine kinase protein phosphorylation
T1 construct: Recombinant intracellular fragments of EGFR, erbB2 and erbB4; made in house; host or cells: baculovirus/Sf21 insect cells (cleared lysate used)
T1 sequence (P00533 669-1210 limits assumed): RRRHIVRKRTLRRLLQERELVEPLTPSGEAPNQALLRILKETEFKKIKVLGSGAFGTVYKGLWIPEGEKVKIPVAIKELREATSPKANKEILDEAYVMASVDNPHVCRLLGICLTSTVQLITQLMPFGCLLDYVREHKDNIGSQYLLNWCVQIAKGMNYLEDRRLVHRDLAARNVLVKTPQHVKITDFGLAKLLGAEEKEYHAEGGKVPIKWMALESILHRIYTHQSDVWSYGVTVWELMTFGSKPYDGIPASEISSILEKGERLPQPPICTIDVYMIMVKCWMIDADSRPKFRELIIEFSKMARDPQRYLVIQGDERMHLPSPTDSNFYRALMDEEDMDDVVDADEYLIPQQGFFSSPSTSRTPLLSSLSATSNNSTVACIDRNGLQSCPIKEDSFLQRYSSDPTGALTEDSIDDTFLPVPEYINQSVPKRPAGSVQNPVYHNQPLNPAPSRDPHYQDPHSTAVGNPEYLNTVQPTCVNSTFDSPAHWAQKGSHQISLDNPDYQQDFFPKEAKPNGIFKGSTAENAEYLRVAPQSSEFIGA
Experimental: (§1) This test measures the ability of a test compound to inhibit the phosphorylation of a tyrosine containing polypeptide substrate by EGFR and erbB2 tyrosine kinase enzyme.
(§2) Recombinant intracellular fragments of EGFR, erbB2 and erbB4 (accession numbers X00588, X03363 and L07868 respectively) were cloned and expressed in the baculovirus/Sf21 system. Lysates were prepared from these cells by treatment with ice-cold lysis buffer (20 mM N-2-hydroxyethylpiperizine-N′-2-ethanesulfonic acid (HEPES) pH 7.5, 150 mM NaCl, 10% glycerol, 1% Triton X-100, 1.5 mM MgCl2, 1 mM ethylene glycol-bis(β-aminoethyl ether) N′,N′,N′,N′-tetraacetic acid (EGTA), plus protease inhibitors and then cleared by centrifugation.
Constitutive kinase activity of the recombinant protein was determined by its ability to phosphorylate a synthetic peptide (made up of a random co-polymer of Glutamic Acid, Alanine and Tyrosine in the ratio of 6:3:1). Specifically, Maxisorb™ 96-well immunoplates were coated with synthetic peptide (0.2 μg of peptide in a 100 μl phosphate buffered saline (PBS) solution and incubated at 4° C. overnight). Plates were washed in PBS-T (phosphate buffered saline with 0.5% Tween 20) then in 50 mM HEPES pH 7.4 at room temperature to remove any excess unbound synthetic peptide. […]
The immobilised phospho-peptide product of the reaction was detected by immunological methods. […] After further washing, HRP activity in each well of the plate was measured colorimetrically using 22′-Azino-di-[3-ethylbenzthiazoline sulfonate (6)] diammonium salt crystals (ABTS™ from Roche) as a substrate.
(§3) Quantification of colour development and thus enzyme activity was achieved by the measurement of absorbance at 405 nm on a Molecular Devices ThermoMax microplate reader. Kinase inhibition for a given compound was expressed as an IC50 value. […] The range of phosphorylation was calculated from the positive (vehicle plus ATP) and negative (vehicle minus ATP) control values.

erbB2 tyrosine kinase = biological target: T2, erbB2 tyrosine kinase (Homo sapiens, UniProt P04626); test: Protein tyrosine kinase phosphorylation assay, Test (a), erbB2; format: biochemical; settings: recombinant intracellular fragment, ATP at Km; read-out: IC50 Test (a): Inhibition of erbB2 tyrosine kinase protein phosphorylation
T2 construct: Recombinant intracellular fragments of EGFR, erbB2 and erbB4; made in house; host or cells: baculovirus/Sf21 insect cells (cleared lysate used)
T2 sequence (P04626 676-1255 limits assumed): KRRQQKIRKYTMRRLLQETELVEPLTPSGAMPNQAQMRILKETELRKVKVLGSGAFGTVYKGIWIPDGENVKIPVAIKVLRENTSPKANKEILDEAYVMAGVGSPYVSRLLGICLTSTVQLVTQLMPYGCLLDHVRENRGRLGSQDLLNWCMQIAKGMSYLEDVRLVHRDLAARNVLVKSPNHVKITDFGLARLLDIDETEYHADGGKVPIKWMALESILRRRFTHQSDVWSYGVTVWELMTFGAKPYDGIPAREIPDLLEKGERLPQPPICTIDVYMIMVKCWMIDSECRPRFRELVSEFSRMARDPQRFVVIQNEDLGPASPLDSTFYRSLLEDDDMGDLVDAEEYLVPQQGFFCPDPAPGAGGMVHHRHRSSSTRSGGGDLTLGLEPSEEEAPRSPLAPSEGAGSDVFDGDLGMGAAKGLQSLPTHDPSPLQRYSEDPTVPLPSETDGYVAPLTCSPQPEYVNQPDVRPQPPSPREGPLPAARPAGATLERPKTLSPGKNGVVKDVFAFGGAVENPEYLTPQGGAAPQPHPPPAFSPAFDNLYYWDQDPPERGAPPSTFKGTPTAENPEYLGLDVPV
Experimental: as §1, §2
Constitutive kinase activity of the recombinant protein was determined by its ability to phosphorylate a synthetic peptide (made up of a random co-polymer of Glutamic Acid, Alanine and Tyrosine in the ratio of 6:3:1). Specifically, Maxisorb™ 96-well immunoplates were coated with synthetic peptide (0.2 μg of peptide in a 100 μl phosphate buffered saline (PBS) solution and incubated at 4° C. overnight). Plates were washed in PBS-T (phosphate buffered saline with 0.5% Tween 20) then in 50 mM HEPES pH 7.4 at room temperature to remove any excess unbound synthetic peptide. EGFR, ErbB2 or ErbB4 tyrosine kinase activity was assessed by incubation in peptide coated plates for 20 minutes at 22° C. in 100 mM HEPES pH 7.4, adenosine trisphosphate (ATP) at Km concentration for the respective enzyme, 10 mM MnCl2, 0.1 mM Na3VO4, 0.2 mM DL-dithiothreitol (DTT), 0.1% Triton X-100 with test compound in DMSO (final concentration of 2.5%). Reactions were terminated by the removal of the liquid components of the assay followed by washing of the plates with PBS-T.
The immobilised phospho-peptide product of the reaction was detected by immunological methods. Firstly, plates were incubated for 90 minutes at room temperature with anti-phosphotyrosine primary antibodies that were raised in the mouse (4G10 from Upstate Biotechnology). Following extensive washing, plates were treated with Horseradish Peroxidase (HRP) conjugated sheep anti-mouse secondary antibody (NXA931 from Amersham) for 60 minutes at room temperature. After further washing, HRP activity in each well of the plate was measured colorimetrically using 22′-Azino-di-[3-ethylbenzthiazoline sulfonate (6)] diammonium salt crystals (ABTS™ from Roche) as a substrate.
as §3

KB cells = test: EGFR driven KB cell proliferation assay, Test (b); format: cell-based; settings: Homo sapiens, 96 h, EGF 1 ng/ml, 4 days, MTT
Experimental: This assay measures the ability of a test compound to inhibit the proliferation of KB cells (human naso-pharangeal carcinoma obtained from the American Type Culture Collection (ATCC).
KB cells (human naso-pharangeal carcinoma obtained from the ATCC were cultured in Dulbecco's modified Eagle's medium (DMEM) containing 10% foetal calf serum, 2 mM glutamine and non-essential amino acids at 37° C. in a 7.5% CO2 air incubator. Cells were harvested from the stock flasks using Trypsin/ethylaminediaminetetraacetic acid (EDTA). Cell density was measured using a haemocytometer and viability was calculated using trypan blue solution before being seeded at a density of 1.25×10^3 cells per well of a 96 well plate in DMEM containing 2.5% charcoal stripped serum, 1 mM glutamine and non-essential amino acids at 37° C. in 7.5% CO2 and allowed to settle for 4 hours.
Following adhesion to the plate, the cells are treated with or without EGF (final concentration of 1 ng/ml) and with or without compound at a range of concentrations in dimethylsulfoxide (DMSO) (0.1% final) before incubation for 4 days. Following the incubation period, cell numbers were determined by addition of 50 μl of 3-(4,5-Dimethylthiazol-2-yl)-2,5-diphenyltetrazolium bromide (MTT) (stock 5 mg/ml) for 2 hours. MTT solution was then tipped off, the plate gently tapped dry and the cells dissolved upon the addition of 100 μl of DMSO.
Absorbance of the solubilised cells was read at 540 nm using a Molecular Devices ThermoMax microplate reader. Inhibition of proliferation was expressed as an IC50 value. This was determined by calculation of the concentration of compound that was required to give 50% inhibition of proliferation. The range of proliferation was calculated from the positive (vehicle plus EGF) and negative (vehicle minus EGF) control values.

erbB2 = biological target: T3, erbB2 (Homo sapiens, UniProt P04626); test: Clone 24 phospho-erbB2 cell assay, Test (e); format: cell-based; settings: MCF7 derived Clone 24 cells, 4 hrs; read-out: IC50 Test (e): Inhibition of erbB2 tyrosine kinase protein phosphorylation
T3 construct: to give a cell line that overexpresses full length wild type erbB2 protein; expressed in transfected cells; host or cells: MCF7 (breast carcinoma) derived 'Clone 24' cells
T3 sequence (P04626 23-1255): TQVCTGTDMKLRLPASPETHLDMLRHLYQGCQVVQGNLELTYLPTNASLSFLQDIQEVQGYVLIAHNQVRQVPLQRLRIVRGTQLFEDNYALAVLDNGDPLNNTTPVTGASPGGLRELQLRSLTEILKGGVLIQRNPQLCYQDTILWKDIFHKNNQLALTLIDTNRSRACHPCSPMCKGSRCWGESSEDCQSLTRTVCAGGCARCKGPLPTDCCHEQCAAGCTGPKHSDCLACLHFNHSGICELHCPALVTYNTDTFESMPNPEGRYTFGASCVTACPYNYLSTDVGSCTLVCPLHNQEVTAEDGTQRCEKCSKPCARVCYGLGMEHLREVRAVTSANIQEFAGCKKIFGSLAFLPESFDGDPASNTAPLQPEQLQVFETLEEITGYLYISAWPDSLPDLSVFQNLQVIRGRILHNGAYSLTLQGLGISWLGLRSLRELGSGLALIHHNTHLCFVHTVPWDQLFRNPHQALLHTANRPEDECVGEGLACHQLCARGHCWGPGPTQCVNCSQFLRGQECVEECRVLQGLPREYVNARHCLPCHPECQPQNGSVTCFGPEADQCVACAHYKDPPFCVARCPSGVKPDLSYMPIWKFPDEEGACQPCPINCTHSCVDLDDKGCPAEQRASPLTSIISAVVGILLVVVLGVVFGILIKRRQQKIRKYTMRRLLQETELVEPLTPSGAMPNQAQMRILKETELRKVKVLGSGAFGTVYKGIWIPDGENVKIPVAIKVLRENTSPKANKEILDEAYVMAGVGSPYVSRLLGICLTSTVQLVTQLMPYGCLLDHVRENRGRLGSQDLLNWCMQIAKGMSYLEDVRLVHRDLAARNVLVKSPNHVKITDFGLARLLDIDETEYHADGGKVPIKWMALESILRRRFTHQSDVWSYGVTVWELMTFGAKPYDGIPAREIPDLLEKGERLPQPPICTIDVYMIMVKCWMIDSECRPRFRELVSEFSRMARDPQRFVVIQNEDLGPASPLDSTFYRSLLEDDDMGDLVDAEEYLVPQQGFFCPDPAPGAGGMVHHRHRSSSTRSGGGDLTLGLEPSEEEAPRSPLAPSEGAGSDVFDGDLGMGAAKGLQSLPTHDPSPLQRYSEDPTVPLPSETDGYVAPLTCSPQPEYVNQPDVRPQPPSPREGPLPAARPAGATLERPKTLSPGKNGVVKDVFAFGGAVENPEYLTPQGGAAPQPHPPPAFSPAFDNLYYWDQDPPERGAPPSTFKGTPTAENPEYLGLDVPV
Experimental: This immunofluorescence end point assay measures the ability of a test compound to inhibit the phosphorylation of erbB2 in a MCF7 (breast carcinoma) derived cell line which was generated by transfecting MCF7 cells with the full length erbB2 gene using standard methods to give a cell line that overexpresses full length wild type erbB2 protein (hereinafter ‘Clone 24’ cells).
Clone 24 cells were cultured in Growth Medium (phenol red free Dulbecco's modified Eagle's medium (DMEM) containing 10% foetal bovine serum, 2 mM glutamine and 1.2 mg/ml G418) in a 7.5% CO2 air incubator at 37° C. Cells were harvested from T75 stock flasks by washing once in PBS (phosphate buffered saline, pH 7.4, Gibco No. 10010-015) and harvested using 2 mls of Trypsin (1.25 mg/ml)/ethylaminediaminetetraacetic acid (EDTA) (0.8 mg/ml) solution. The cells were resuspended in Growth Medium. Cell density was measured using a haemocytometer and viability was calculated using Trypan Blue solution before being further diluted in Growth Medium and seeded at a density of 1×10^4 cells per well (in 100 ul) into clear bottomed 96 well plates (Packard, No. 6005182).
3 days later, Growth Medium was removed from the wells and replaced with 100 ul Assay Medium (phenol red free DMEM, 2 mM glutamine, 1.2 mg/ml G418) either with or without erbB inhibitor compound. Plates were returned to the incubator for 4 hrs and then 20 μl of 20% formaldehyde solution in PBS was added to each well and the plate was left at room temperature for 30 minutes. This fixative solution was removed with a multichannel pipette, 100 μl of PBS was added to each well and then removed with a multichannel pipette and then 50 μl PBS was added to each well. Plates were then sealed and stored for up to 2 weeks at 4° C.
Immunostaining was performed at room temperature. Wells were washed once with 200 μl PBS/Tween 20 (made by adding 1 sachet of PBS/Tween dry powder (Sigma, No. P3563) to 1 L of double distilled H2O) using a plate washer then 200 μl Blocking Solution (5% Marvel dried skimmed milk (Nestle) in PBS/Tween 20) was added and incubated for 10 minutes. Blocking Solution was removed using a plate washer and 200 μl of 0.5% Triton X-100/PBS was added to permeabalise the cells. After 10 minutes, the plate was washed with 200 μl PBS/Tween 20 and then 200 μl Blocking Solution was added once again and incubated for 15 minutes. […]
The Fluorescence signal is each well was measured using an Acumen Explorer Instrument (Acumen Bioscience Ltd.), a plate reader that can be used to rapidly quantitate features of images generated by laser-scanning. […]

SMILES	IC50 (EGFR tyrosine kinase) [µM]	IC50 (erbB2 tyrosine kinase) [µM]	IC50 (KB cells) [µM]	IC50 (erbB2) [µM]
COC(=O)N1CCC(Oc2cc3c(Nc4cccc(Cl)c4F)ncnc3cc2OC)CC1 [Example 1, 4-(3-Chloro-2-fluoroanilino)-7-methoxy-6-{[1-(methoxycarbonyl)piperidin-4-yl]oxy}quinazoline]	0.001	0.038	0.035	0.009
COc1cc2ncnc(Nc3cccc(Cl)c3F)c2cc1OC1CCN(C(=O)OCCN2CCCC2)CC1 [Example 2, 4-(3-Chloro-2-fluoroanilino)-7-methoxy-6-{[1-{2-(pyrrolidin-1-yl)ethoxycarbonyl}piperidin-4-yl]oxy}quinazoline]	0.004	0.01	0.009	0.036
COc1cc2ncnc(Nc3ccc(F)c(Cl)c3F)c2cc1OC1CCN(C(=O)OCCN2CCCC2)CC1 [Example 4, 4-(3-Chloro-2,4-difluoroanilino)-7-methoxy-6-{[1-{2-(pyrrolidin-1-yl)ethoxycarbonyl}piperidin-4-yl]oxy}quinazoline]	0.002	0.002	0.015	0.029
COc1cc2ncnc(Nc3cccc(Cl)c3F)c2cc1OC1CCN(C(=O)OCCN2CCCCC2)CC1 [Example 6, 4-(3-Chloro-2-fluoroanilino)-7-methoxy-6-{[1-{2-(piperidin-1-yl)ethoxycarbonyl}piperidin-4-yl]oxy}quinazoline]		0.002	0.01	0.041
